Reference: patent US5843941A, “Ras farnesyl transferase inhibitors” (Genentech, Inc., priority 1994, dated 1998)
pIC50: −log10 of the molar value. Entries after “also recorded” stand apart in the source; their conditions may differ.

Key:
CAAX GG transferase = target: T1, CAAX GG transferase (Rattus norvegicus, UniProt P53610+Q04631); assay: Inhibition of CAAX GG transferase (geranylgeranyltransferase); format: biochemical
T1 construct: partially purified CAAX GG transferase; from tissue
Excerpt: FIG. 1 compares the inhibitory activity of compound 27B (denoted as BG269B in the figure) on protein prenyltransferases. […] Two other prenyltransferases, both of which transfer 20-carbon geranylgeranyl (GG) groups, have been identified in rat brain. One of thesse, CAAX GG transferase, attaches GG groups to proteins that terminate in CAAX sequences in which X is leucine.
The conditions used to assay the inhibition of CAAX farnesyltransferase are identical to those described above for the in vitro, assay described in Example 121. In FIG. 1B the assay mixture contained, in a final volume of 50 μl, 50 mM sodium Hepes (pH 7.2), 5 mM MgC12, 5 mM DTT, 0.3 mM Nonidet P-40, 0.2% octyl β-glucoside, 1% DMSO, 0.5 μM all trans [3H]geranylgeranyl pyrophosphate (33,000 dpm/pmol; ARC, Inc.), 5 μM recombinant p21^H-rasCVLL, 6.3 μg partially purified CAAX GG transferase (see Seabra, M. C., Reiss, Y., Casey, P. J., Brown, M. S., and Goldstein, J. L. Cell 268, 4055 (1993)) and varying concentrations of the indicated inhibitor. In FIG. 1C, the assay mixture contained in a final volume of 50 μl, 50 mM sodium Hepes (pH 7.2), 5 mM MgCl2, 5 mM DTT, 0.3 mM Nonidet P-40, 0.2% octyl β-D-glucoside, 1% DMSO, 0.5 μM all trans [3H]geranylgeranyl pyrophosphate (33,000 dpm/pmol; ARC, Inc.), 2 μM recombinant Rab1A, 2 ng each of purified Components A and B of Rab GG transferase (see Seabra, M. C., Goldstein, J. L., Sudhof, T. C., and Brown, M. S. J. Biol. Chem. 267, 14497 (1992)) and varying concentrations of the indicated inhibitor.
Each assay was carried out as described in Examples 121 and 122.

[1] = system: untransformed rat-1 fibroblasts; assay: Changes in morphology of untransformed cells; format: cell-based; conditions: FIG. 6E and F
Procedure: Compound 27A (denoted as BG269A in the figure) and compound 27B (denoted as BG269B in the figure) were added at 250 μM to test whether these compounds would induce reversion to a more normal phenotype as had been previously shown with microinjection of anti-Ras antibodies (see Feramisco, J. R. et al Nature 314, 639 (1985)). The H-ras transformed cells, denoted as rat 2.2 cells, were generated by transfection of rat-1 fibroblasts as described (see Seeburg, P. H., Colby, W. W., Capon, D. J., Goeddel, D. V., and Levinson, A. D. Nature 312,71 (1984)). Cells that overgrew the monolayer were extracted and plated onto agar to obtain a cell line displaying a fully transformed phenotype. Untransformed rat-1 fibroblasts and src-transformed rat-1 fibroblasts were also treated. The src-transformed cells were generated by co-transfection of rat-1 fibroblasts with pSV3.Neo.src, a vector containing the gene for src as well as the gene that confers G418 resistance, both under control of SV40 early promoters. G418-resistant cell clones that diplayed a transformed phenotype were used to generate the cell line. On day 0, cells were plated in monolayer culture at 3×10^3 cells per well (24-well plates) in 1 ml DMEM supplemented with 10% FCS, 100 U/ml penicillin, 10 μg/ml streptomycin, 2% DMSO, and 0.5 mM DTT with and without 200 μM inhibitor. On day 3, the cells were refed with the same medium. […]

Hela cells = assay: Growth inhibition of human tumor line Hela; format: cell-based; conditions: cervix, not ras transformed, read-out: % growth inhib.
Procedure: (§1) To examine the effects of farnesyltransferase inhibition on cell growth, three cell lines (ras-transformed rat-1, src-transformed rat-1, and parental rat-1 cells) were seeded (see FIG. 7) at low density and allowed to grow for 10 days in the absence or presence of increasing concentrations of BZA-5B (compound 37). See Example 128 for description of cells. On day 0, cells were plated in monolayer culture at 2×10^3 cells per well (24-well plates) in 1 ml DMEM supplemented with 10% fetal calf serum, 100 U/ml penicillin, 100 μg/ml streptomycin, 0.5 mM DTT, 0.025% DMSO, and the indicated concentration of BZA-5B (compound 37). On days 3 and 7, cells were washed and refed with the same medium. At the time indicated in FIG. 7, cells were harvested by trypsinization and counted in a Coulter counter. Panels A, C, E show the growth rate of each cell line in the absence of inhibitor. Panels B, D, F show the inhibition of growth as a function of concentration of BZA-5B at each time point. […]
(§2) To examine the effects of farnesyltransferase inhibition on the growth of human tumor cell lines, several such lines were treated with 25 μM BZA-5B (compound 37B) using a procedure similar to that described in Example 129 above. Cells were refed with fresh media at days 3 and 6 containing the inhibitor, and were harvested and counted as described above. […]

CALU-3 cells = assay: Growth inhibition of human tumor line CALU-3; format: cell-based; conditions: CALU-3, lung, ras transformed, read-out: % growth inhib.
Procedure: as §1, §2

MDA-7 cells = assay: Growth inhibition of human tumor line MDA-7; format: cell-based; conditions: MDA-7, breast, not ras transformed, read-out: % growth inhib.
Procedure: as §1, §2

[2] = system: HT 1080 human tumor cells in nude mouse; assay: Survival of nude mice after intraperitoneal implantation of HT 1080 human tumor cells; format: in vivo; conditions: 20 mg/kg daily
Procedure: Implantation of […] HT 1080 cells in the peritoneal cavity of the nude mouse allows seeding and growth of tumor cell masses within the peritoneum. […] In this experiment, fourteen nude mice were injected on day 0 with […] HT 1080 cells via intraperitoneal injection. Half the animals (seven) immediately began receiving daily treatment with Compound 37B at 20 mg/kg (formulated in approx. 0.25 ml of 1% DMSO, 20% glycerol, 10 mM NaOAc, 130 mM NaCl, pH 4.5). The other seven animals received daily injection of the above vehicle alone.

T1 sequence (P53610 whole entry, one chain of several): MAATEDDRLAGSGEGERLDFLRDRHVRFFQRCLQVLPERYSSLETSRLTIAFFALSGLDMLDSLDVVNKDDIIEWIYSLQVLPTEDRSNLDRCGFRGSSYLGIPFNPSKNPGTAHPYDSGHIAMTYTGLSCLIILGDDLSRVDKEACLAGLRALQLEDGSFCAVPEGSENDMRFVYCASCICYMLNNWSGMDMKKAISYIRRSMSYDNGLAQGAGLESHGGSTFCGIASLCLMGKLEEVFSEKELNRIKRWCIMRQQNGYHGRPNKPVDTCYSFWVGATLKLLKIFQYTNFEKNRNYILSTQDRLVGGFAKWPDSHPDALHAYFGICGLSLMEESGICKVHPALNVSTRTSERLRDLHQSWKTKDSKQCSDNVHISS

Compound	pIC50 (CAAX GG transferase; FIG. 1B, p21H-rasCVLL substrate, read-out: IC0.5 CAAX GG transferase)	fold higher concentration for CAAX GG transferase than for CAAX farnesyltransferase (CAAX GG transferase; selectivity vs CAAX farnesyltransferase)	effect on morphology of untransformed cells [1]	inhibition at 25 µM (Hela cells) [%]	inhibition at 25 µM (CALU-3 cells) [%]	inhibition at 25 µM (MDA-7 cells) [%]	mortality / survival of mice with IP tumor ([2]; over 25 days, FIG. 8)	tumor cell masses in the peritoneum at end of treatment ([2]; dissection of all treated animals)
CSCC[C@H](NC(=O)CN1C(=O)C(N(C)C(=O)[C@@H](N)CS)N=C(c2ccccc2)c2ccccc21)C(=O)O (single isomer, unassigned) [27B]	7.46	more than 100 fold	no apparent effect on the morphology of untransformed rat-1 fibroblasts					
COC(=O)[C@H](CCSC)NC(=O)CN1C(=O)C(N(C)C(=O)[C@@H](N)CS)N=C(c2ccccc2)c2ccccc21 (single isomer, unassigned) [37B]				0	52	0	caused a reduction in mortality over 25 days; also recorded: blocked the rapid mortality associated with IP implantation of tumor cells	all of the treated animals showed the presence of tumor cell masses in the peritoneum
